Test results reported in US8017747B2, “Apoptosis-inducing genes for treating cancer” (Nationwide Children's Hospital, Inc., priority 2004, dated 2011).
Where a name gives a salt, the structure may show the parent alone. Read-outs that look alike come from different tables or passages of the source.

What was measured:
697Bcl2 cells = test: 697Bcl2 cell growth, trypan blue exclusion; assay type: cell-based; settings: 72 hours
Excerpt: (§1) To determine cell viability, cells were subjected to trypan blue exclusion assays. Briefly, cells were washed with PBS, and diluted 1:1 in a solution of 0.4% trypan blue. Viable cells were counted and total viable cell number was used for growth curves. Late apoptotic/necrotic cells were also identified by staining with 0.4% trypan blue. The number of apoptotic/necrotic cells were counted and expressed as a percentage of the total number of cells.
(§2) The foregoing descriptions provide many working examples organized under a single example as an aid to the reader. Further, these descriptions emphasized the results obtained with Jurkat cells.

[1] = tested on: SKOV-3 intraperitoneal ovarian tumors; settings: 26 days; for Tumor Size / Tumor Weight: mean
Jurkat cells [2] = test: Western blot of Jurkat lysates (Granzyme B, caspase-3, p21); assay type: cell-based; settings: 48 hours
Experimental: Proteins were extracted from cells by boiling in 0.5% SDS. Quantification of the protein content of the cell lysates was determined using the Lowry method. A total of 15 μg of each cell lysate were analyzed through electrophoretic separation in 12% SDS-PAGE and transferred onto a nitrocellulose membrane using a semi-dry transfer apparatus, at 20V for 1 hour. The membrane was probed with rabbit anti-caspase-3 polyclonal antibody (1:1000, Santa Cruz Biotech), rabbit anti-granzyme B (1:1000, Abcam) or mouse anti-p21 (1:1000, Santa Cruz Biotech) and HRP-conjugated anti-rabbit or anti-mouse IgG (1:5000, Santa Cruz Biotech). Detection was achieved using the ECL or ECL Advanced kits (Amersham) and exposure to X-ray film for varying amounts of time. Protein standards were used for size determination.
Proliferating Jurkat cells were transfected with the survivin promoter-granzyme B construct disclosed herein and termed SAGA, for 24 or 48 hours. Protein extracts were generated from transfected cells and control transfected cells, and analyzed by SDS-PAGE.
After confirming expression of Granzyme B from SAGA, its apoptotic function was tested by assaying for caspase-3 activation. Proliferating Jurkat cells were transfected with SAGA for 24 or 48 hours, as previously described. Protein extracts were separated by SDS-PAGE.
The levels of p21 in control cells at both time points were negligible.

Jurkat cells [3] = test: Jurkat cell growth/viability and late apoptosis, trypan blue exclusion; assay type: cell-based
Experimental: Acute T-cell leukemia cells, Jurkat, were grown in RPMI-1640 (Mediatech) supplemented with 10% FBS and grown at 37° C. in 95% air, 5% CO2. For growth analysis, cells were seeded at a density of 2×10^5 cells and for all other experiments a density of 5×10^5 was used. Transfections were performed using effectene transfection reagent, at a ratio of 1 μg DNA:25 μl effectene.
as §1
Proliferating Jurkat cells were seeded at a density of 2×10^5 cells and transfected with control plasmid, SAGA, or treated with 2 μM VCR. Viable cells were assayed by trypan blue exclusion at 0, 12, 24, 48 and 72 hours post-transfection/treatment. […]
Late apoptosis was quantified as the percentage of dead cells versus total cells. […]
In addition to the single treatment effects of SAGA expression on transfected cells, the combined effects of treatment with SAGA plus VCR were also evaluated in vitro using Jurkat cells. […]

Jurkat cells [4] = test: DNA fragmentation by agarose gel, Jurkat; assay type: cell-based; settings: 48 hours
Experimental: To analyze DNA fragmentation, cellular DNA was isolated by lysis of cells in Cell Lysis Buffer (50 mM Tris-HCl, pH 8.5, 20 mM EDTA, 1% NP-40 (IGEPAL CA-630)) for 30 minutes on ice, followed by a 1 hour incubation at 56° C. with 500 μg/ml RNase A (Roche) and an overnight incubation with 1 mg/ml proteinase K (Fisher) at 37° C. After allowing the solution to cool to room temperature, proteins were precipitated with Protein precipitation solution (Gentra Systems) and isopropanol was added to the supernatants containing DNA to precipitate that DNA. The resulting RNase-treated DNA was quantified by spectrophotometry and 5 μg of DNA were resolved in a 1.8% agarose gel at 80V for 2 hours. DNA was stained by ethidium bromide and visualized with a UV transilluminator. A 1 kB Plus DNA ladder (Fisher) was run alongside the samples.
DNA fragmentation is a common sign of late-stage apoptosis that is characterized by enzyme-mediated nicks and breaks in the DNA. […] The onset of DNA fragmentation occurred at 12 hours post-treatment for SAGA-treated cells. […] DNA from control cells remained intact throughout the experiment.

697Bcl2 cells (B-ALL) = test: Annexin V/PI staining with FACS, B-ALL (697Bcl2); assay type: cell-based
Experimental: (§3) To analyze early apoptotic events, cells from the different experimental conditions were subjected to staining with an Annexin V-FLUOS kit (Roche). FACS analysis was then performed.
as §2

Jurkat cells [5] = test: Phase contrast microscopy of Jurkat cells (morphological changes); assay type: cell-based; settings: 12 hours
Experimental: SAGA transfected, VCR treated, and control cells were visualized microscopically at 0, 12, 48 and 72 hours post transfection/treatment. At 0 hours, the cells in all groups appeared healthy. At 12 hours, there was approximately 5% apoptosis seen in both SAGA- and VCR-treated cell populations. At 48 and 72 hours, more than 50% of apoptotic cells in SAGA- and VCR-treated cell populations were visualized, with a very high degree of morphologically abnormal cells in the population of cells transfected with SAGA, including late necrotic and lysed cells, appearing as cellular debris.

Daoy cells [6] = test: Phase contrast microscopy of Daoy cells; assay type: cell-based; settings: 48 and 72 hours
Experimental: Living cells in 12-well plates were observed by phase contrast microscopy using a Leica Inverted microscope at 10× magnification.
SAGA-transfected, VCR-treated, and control cells were visualized microscopically at 0, 24, 48 and 72 hours post transfection/treatment. At 0 hours, the cells in all groups appeared healthy.

Daoy cells [7] = test: Daoy cell growth/viability, trypan blue exclusion; assay type: cell-based; settings: 24 hours, VCR 2 μM
Experimental: Medulloblastoma cell lines, i.e., Daoy cells (ATCC HTB-186), were grown in DMEM-(Mediatech) supplemented with 10% FBS and grown at 37° C. in 95% air, 5% CO2. For growth analysis, cells were seeded at a density of 1.5×10^5 cells. Transfections were performed using effectene transfection reagent, at a ratio of 1 μg DNA:10 μl effectene.
as §1
Proliferating Daoy cells were seeded at a density of 1.5×10^5 cells and transfected with control plasmid, SAGA, or treated with 2 μM VCR. Viable cells were assayed by trypan blue exclusion at 0, 24, 48 and 72 hours post-transfection/treatment. There was a 90% decrease in the viability of SAGA-transfected cells at 24 hours compared to 50% for VCR-treated cells. Control cells grew consistently, with a doubling time of approximately 48 hours.

Jurkat cells (T-ALL) = test: Annexin V/PI staining with FACS, T-ALL (Jurkat); assay type: cell-based
Experimental: as §3
Annexin-V/PI is a commonly used method to detect early apoptotic events in cells. We employed this strategy to assay early apoptosis in SAGA transfected cells at 12, 24 and 48 hours.
Apoptotic events were detected by Annexin V staining and by changes in mitochondrial potential, as early as 12 hours post-treatment. In addition to these events, DNA fragmentation was also observed and caspase-3 activation was evident in treated cells. Cytotoxicity was clearly visible by microscopic analysis 24 hours post-treatment (FIG. 3).

**Q.** With `COc1cc([C@@H]2c3cc4c(cc3[C@@H](O[C@@H]3O[C@@H]5CO[C@@H](C)O[C@H]5[C@H](O)[C@H]3O)[C@H]3COC(=O)[C@H]23)OCO4)cc(OC)c1O` [Etoposide, etoposide] as the compound, how does the “living cells as % of the original inoculum” value (697Bcl2 cells; vincristine normal serum concentration, etoposide 5 μM) read?
**A.** 61.8%

**Q.** With `CC(=O)O[C@H]1C(=O)[C@@]2(C)[C@H]([C@H](OC(=O)c3ccccc3)[C@]3(O)C[C@H](OC(=O)[C@H](O)[C@@H](NC(=O)c4ccccc4)c4ccccc4)C(C)=C1C3(C)C)[C@]1(OC(C)=O)CO[C@@H]1C[C@@H]2O` [Paclitaxel, paclitaxel] as the compound, how does the “Disease Dissemination” value [1] read?
**A.** 4 of 5

**Q.** And the “Number of Nodules” value [1]?
**A.** 6.2 ± 3.9

**Q.** And the “Animals with Tumors at Completion of Therapy” value ([1]; paclitaxel 15 mg/kg i.p. 2 injections, SAGA 0.5 mg/kg DNA i.p. twice weekly)?
**A.** 5 of 5

**Q.** What about the “Tumor Size” value [1] of the same compound?
**A.** 10.4 ± 1.3 mm

**Q.** And the “Tumor Weight” value [1]?
**A.** 236.0 ± 79.8 mg

**Q.** And the “Tumor Size” value ([1]; listed as paclitaxel)?
**A.** 10.4 mm

**Q.** And the “Tumor Weight” value ([1]; listed as paclitaxel)?
**A.** 236.0 mg

**Q.** `CC[C@]1(O)C[C@H]2CN(CCc3c([nH]c4ccccc34)[C@@](C(=O)OC)(c3cc4c(cc3OC)N(C=O)[C@H]3[C@@](O)(C(=O)OC)[C@H](OC(C)=O)[C@]5(CC)C=CCN6CC[C@]43[C@@H]65)C2)C1` [Vincristine, Vincristine sulfate] was tested. Which p21 protein induction (Jurkat cells [2]) did it give?
**A.** much lower levels

**Q.** And the average viability (Jurkat cells [3]; 48 hours after treatment)?
**A.** 86%

**Q.** And the “final living cell count as % of the initial cell number at time 0” value (Jurkat cells [3]; 72 hours post-transfection/treatment, VCR 2 μM)?
**A.** 63%

**Q.** What about the DNA fragmentation (Jurkat cells [4]) of the same compound?
**A.** visible

**Q.** And the “Early Apoptosis” value (697Bcl2 cells (B-ALL); 24 hours)?
**A.** 1.78%

**Q.** What about the Necrosis (697Bcl2 cells (B-ALL); 24 hours) of the same compound?
**A.** 1.17%

**Q.** What about the “Early Apoptosis” value (697Bcl2 cells (B-ALL); 48 hours) of the same compound?
**A.** 5.09%

**Q.** And the Necrosis (697Bcl2 cells (B-ALL); 48 hours)?
**A.** 2.34%

**Q.** What about the apoptosis seen microscopically (Jurkat cells [5]) of the same compound?
**A.** approximately 5%

**Q.** What about the “living cells as % of the original inoculum” value (697Bcl2 cells; high dose of vincristine (5 μM)) of the same compound?
**A.** 103%

**Q.** And the “apoptotic cells seen microscopically” value (Daoy cells [6])?
**A.** high numbers of apoptotic cells

**Q.** What about the decrease in viability (Daoy cells [7]) of the same compound?
**A.** 50%

**Q.** And the “Early Apoptosis” value (Jurkat cells (T-ALL); 24 hours)?
**A.** 46.5%

**Q.** And the Necrosis (Jurkat cells (T-ALL); 24 hours)?
**A.** 18%

**Q.** What about the “Early Apoptosis” value (Jurkat cells (T-ALL); 48 hours) of the same compound?
**A.** 49.4%

**Q.** What about the Necrosis (Jurkat cells (T-ALL); 48 hours) of the same compound?
**A.** 26%
